How the values were obtained:
human RARβ2 receptors = molecular target: T1, human RARβ2 receptors (Homo sapiens, UniProt P10826); settings: as described in Lund et al. (2005, J. Med. Chem., 48, 7517-7519); cited from earlier work
T1 sequence (P10826 1-448 isoform P10826-2): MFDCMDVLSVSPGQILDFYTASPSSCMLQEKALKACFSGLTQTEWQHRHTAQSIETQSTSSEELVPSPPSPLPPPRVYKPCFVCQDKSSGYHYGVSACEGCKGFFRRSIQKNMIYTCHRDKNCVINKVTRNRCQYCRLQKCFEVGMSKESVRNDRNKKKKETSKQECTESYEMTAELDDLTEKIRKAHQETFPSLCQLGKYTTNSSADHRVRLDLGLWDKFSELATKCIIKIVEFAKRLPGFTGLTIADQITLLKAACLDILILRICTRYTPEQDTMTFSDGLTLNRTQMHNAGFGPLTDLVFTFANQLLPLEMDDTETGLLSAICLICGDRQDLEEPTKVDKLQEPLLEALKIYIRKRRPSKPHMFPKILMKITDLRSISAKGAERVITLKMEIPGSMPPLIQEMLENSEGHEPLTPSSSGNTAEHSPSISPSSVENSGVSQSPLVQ

ethanol-fed mice [1] = assay: Hepatic steatosis (histopathology, Oil Red O, hepatic triglycerides) in Lieber-DeCarli liquid ethanol diet model of early ALD; assay type: in vivo, mouse (male C57BL/6J); settings: EtOH-AC261 vs EtOH mice, 10 mg/kg/day, 3 weeks
Text: (§1) Liquid Ethanol Diet. Male C57BL/6J mice (8-9-weeks-old) (n=30) were purchased from Jackson Laboratory. Animals were housed in standard cages with 2-mice per cage and fed a standard vivarium chow (rodent diet #2014, Harlan-Teklad, Madison, WI). After acclimation to liquid feeding, mice were switched to the Lieber-DeCarli-liquid alcohol diet for 3 weeks using the following groups: 1) Control diet-fed mice (aka Pair-fed (PF), n=6), 2) Pair-fed mice+RARβ2 specific agonist AC261066 (Tocris #4046), at 10 mg/kg/day [Pair-fed+AC261, (n=4)] (PF-AC), 3) Alcohol-treated (5% ethanol (EtOH) v/v plus vehicle [0.1% DMSO], n=10) (EtOH), and iv) 4) EtOH+AC261, [10 mg/kg/day], n=10)] (EtOH-AC).

ethanol-fed mice [2] = assay: Plasma AST and ALT activity (liver injury markers) in liquid ethanol diet model; assay type: in vivo, mouse (male C57BL/6J); settings: EtOH-AC261 vs EtOH mice; 10 mg/kg/day, 3 weeks
Text: as §1

ALDH1A1 = assay: Hepatic ALDH1A1 protein by western blot and IHC in liquid ethanol diet model; assay type: in vivo, mouse (male C57BL/6J); settings: EtOH-AC vs EtOH mice
Text: as §1
(§2) AC261066 and ethanol modulate centrilobular protein expression of ALDH1A1, CYP2E1, and Oxidative Stress. ALDH1A1 is one of the rate-limiting enzymes in the oxidation of retinaldehyde to RA and a key contributor to hepatic RA synthesis, as mice lacking ALDH1A1 show reduced hepatic levels of RA. […] Therefore, hepatic protein levels of ALDH1A1 were measured next, as it was the only ALDH1A isoform to increase in EtOH compared to PF mice. […] Therefore, given that high levels of ALDH1A1 were specifically detected only in zone 2-3, centrilobular regions, hepatic CYP2E1 protein levels were next measured by western blot and IHC, and by IHC, 4-HNE, as an indirect readout of oxidative stress. […]

CYP2E1 = assay: Hepatic CYP2E1 protein by western blot and IHC in liquid ethanol diet model; assay type: in vivo, mouse (male C57BL/6J); settings: EtOH-AC261066 vs EtOH mice
Text: as §1, §2

4-HNE = assay: Hepatic 4-HNE IHC (indirect readout of oxidative stress) in liquid ethanol diet model; assay type: in vivo, mouse (male C57BL/6J); settings: EtOH-AC261 vs EtOH mice
Text: as §1, §2

[3] = tested on: genes involved in de novo lipogenesis and fatty acid β-oxidation; assay: RNA-seq of hepatic transcripts of lipid metabolism genes in liquid ethanol diet model; assay type: in vivo, mouse (male C57BL/6J)
Text: as §1
The mechanism by which AC261066 functions in lipid metabolism, including de novo lipogenesis and fatty acid β-oxidation in the liver, was assessed.

[4] = Tolerability and general observations (food intake, body weight, blood alcohol, hepatic drug level, hepatotoxicity, fibrosis) in liquid ethanol diet study; assay type: in vivo, mouse (male C57BL/6J)
Text: as §1

[5] = 5% ETOH-fed mice with vs without AC261066
[6] = 5% ETOH-fed plus AC261066 vs ETOH-fed mice without AC261066

In the case of CCCCCCCCc1ccc(-c2ccc(C(=O)O)cc2)cc1 [AC55649], the “isoform selectivity of agonism at human RARβ2 receptors” value (human RARβ2 receptors) is given as “highly isoform-selective agonists”.

For CCCCOCCOc1nc(-c2ccc(C(=O)O)c(F)c2)sc1C [AC261066], the “reduction in Oil red O lipid-staining” value (ethanol-fed mice [1]) was 41%, the “reduction in hepatic triglycerides” value (ethanol-fed mice [1]) was 35% and the “reduction in macrovesicular steatosis” value (ethanol-fed mice [1]; 5% EtOH diet) was 72%. The “reduction in microvesicular steatosis” value (ethanol-fed mice [1]; 5% EtOH diet) was 82%, the “reduction in plasma activity of ALT” value (ethanol-fed mice [2]) was about 30% and the “reduction in plasma activity of AST” value (ethanol-fed mice [2]) was about 30%. For the same compound, the “reduction in zone 2-3, centrilobular ALDH1A1 protein immunoreactivity” value (ALDH1A1; IHC) was 40%, the “reduction in ALDH1A1 total protein” value (ALDH1A1; western blot) was 32% and the “reduction in zone 2-3 centrilobular CYP2E1 protein levels” value (CYP2E1; IHC) was about 39%. The “reduction in hepatic CYP2E1 protein levels” value (CYP2E1; total protein) was “approximately 31%”, the “decrease in hepatic levels of 4-HNE” value (4-HNE) was 36% and the “decrease in hepatic levels of 4-HNE (first value)” value (4-HNE) was 33%. For the same compound, the “EtOH-induced increase in hepatic Fasn mRNA level” value [3, 5] was “eliminated or attenuated”, the “EtOH-induced increase in hepatic Mogat1 mRNA level” value [3, 5] was “eliminated or attenuated” and the “EtOH-induced increase in hepatic Pparg mRNA level” value [3, 5] was “eliminated or attenuated”. The “hepatic CPT1-α transcripts” value [3, 6] was “increased”, the “hepatic Ppara transcripts” value [3, 6] was “increased” and the “changes to hepatic steatosis, triglyceride levels, fibrosis, or liver injury” value ([4]; PF+AC261 mice (pair-fed, no ethanol), 10 mg/kg/day, 3 weeks) was “No evidence was found of changes”. For the same compound, the “daily food intake and body weights” value ([4]; all groups, entire length of the study) was “no group differences”, the hepatoxicity or fibrosis ([4]; concomitant administration of AC261 with EtOH, 3 weeks) was “no evidence” and the “effect of EtOH on hepatic AC261 levels” value ([4]; concomitant administration with EtOH, 3 weeks) was “did not adversely impact”. For the same compound, the “isoform selectivity of agonism at human RARβ2 receptors” value (human RARβ2 receptors) was “highly isoform-selective agonists”.

Source: patent US20240390334A1, “COMPOSITIONS AND METHODS FOR MITIGATING ALCOHOL LIVER DISEASE” (Research Foundation of the City University of New York, priority 2021, published 2024)
